The values below come from publication PMC7352292, “Targeting Pharmacokinetic Drug Resistance in Acute Myeloid Leukemia Cells with CDK4/6 Inhibitors” (Cancers, 2020).

One data set concerns the target T1, AKR1B1 (Homo sapiens, UniProt P15121).
T1 construct: made in house; host or cells: Escherichia coli
Put plainly: Screening for inhibitory activity on recombinant CRE: AKR1B1. Conditions: 50 μM inhibitor concentration; mean ± SD, three experiments. The class given is biochemical. An excerpt:
(§1) Human recombinant carbonyl reducing enzymes CBR1, AKR1A1, AKR1B1, AKR1B10, and AKR1C3 were expressed and isolated by the Escherichia coli expression system as described previously.

Data set [1] concerns PBMC of AML patients. Put plainly: Mitoxantrone accumulation in PBMC of AML patients. The class given is cell-based, human. Conditions: 1 µM mitoxantrone, 4 h; for increase of median mitoxantrone accumulation: cmax concentrations, vs untreated control; for effect on median mitoxantrone accumulation: CD34− PBMC, cmax concentrations (0.5 µM abemaciclib, 0.5 µM palbociclib, 7.5 µM ribociclib).

For the next data set, the target named is T2, AKR1B10 (Homo sapiens, UniProt O60218).
T2 construct: made in house; host or cells: Escherichia coli
T2 sequence (O60218 whole entry): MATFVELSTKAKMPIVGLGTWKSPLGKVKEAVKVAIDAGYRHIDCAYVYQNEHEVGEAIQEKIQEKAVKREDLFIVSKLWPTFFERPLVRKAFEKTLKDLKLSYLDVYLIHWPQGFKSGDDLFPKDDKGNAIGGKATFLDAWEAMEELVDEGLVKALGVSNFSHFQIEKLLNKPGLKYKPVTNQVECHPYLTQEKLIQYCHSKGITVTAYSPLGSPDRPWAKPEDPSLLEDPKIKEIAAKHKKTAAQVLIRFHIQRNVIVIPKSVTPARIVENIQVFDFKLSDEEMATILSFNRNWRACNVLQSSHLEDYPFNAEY
Put plainly: Screening for inhibitory activity on recombinant CRE: AKR1B10. The class given is biochemical. Conditions: 50 μM inhibitor concentration; mean ± SD, three experiments.
Source text: as §1

For data set [2], the target named is T3, AKR1C3 (Homo sapiens, UniProt P42330).
T3 sequence (P42330 1-323): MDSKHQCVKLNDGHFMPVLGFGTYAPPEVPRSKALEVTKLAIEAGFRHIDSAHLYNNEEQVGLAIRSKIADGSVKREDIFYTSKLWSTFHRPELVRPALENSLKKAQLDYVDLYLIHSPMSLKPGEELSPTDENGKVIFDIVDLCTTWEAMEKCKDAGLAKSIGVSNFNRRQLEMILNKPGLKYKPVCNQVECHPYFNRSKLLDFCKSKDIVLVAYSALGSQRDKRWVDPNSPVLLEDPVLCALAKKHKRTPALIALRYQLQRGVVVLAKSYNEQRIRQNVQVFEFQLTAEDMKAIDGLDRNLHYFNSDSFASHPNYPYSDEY
Put plainly: Screening for inhibitory activity on recombinant CRE: AKR1C3. It is filed as biochemical. Details: made in house; host or cells: Escherichia coli. Conditions: 50 μM inhibitor concentration; mean ± SD, three experiments.
Source text: as §1

The conditions of data set [3]: cited from earlier work.
Another data set relates to HL-60 cells. Put plainly: Sub-G1 fraction of HL-60 parental/control cells. It is filed as cell-based, human. Conditions: single drug vs untreated control. The protocol:
(§2) The fluorescent substrates daunorubicin (0.2 µM) or mitoxantrone (1 µM) were then added and the suspensions incubated for 4 h at 37 °C and 5% CO2. […] The percentage of cells displaying hypodiploid DNA content is presented as a sub-G1 region of a PI histogram.

The target in data set [4] is T3, AKR1C3. Put plainly: Inhibitory assay on HCT116 cells with transient AKR1C3 expression (daunorubicin to daunorubicinol). It is filed as cell-based. As to conditions: HCT116 transfected with AKR1C3, 1 µM daunorubicin, 0.1-10 μM drug, 4 h. Here is the method: HCT116 cells were seeded (1.25 × 10^5 cells/well) in 24-well plates and after 24 h in culture transfected with mammalian pCI_AKR1C3 plasmid as described previously. The expression of recombinant AKR1C3 was verified by western blotting using rabbit polyclonal anti-AKR1C3 antibody (ab84327, Abcam, Cambridge, UK). Uniformity of transfection was assumed only when <10% difference was observed between experiments regarding the expression of pCI plasmid containing GFP reporter gene. […] After 4 h incubation (37 °C, 5% CO2), medium was collected, cells were lysed, and resulting samples were handled and analyzed by ultra high-performance liquid chromatography as described previously.

Data set [5] relates to PBMC of AML patients. Put plainly: Apoptosis detection (annexin V/PI) in PBMC of AML patients. It is filed as cell-based, human. As to conditions: vs untreated control, 4 h, cmax concentrations. Here is the method:
PBMC were isolated from whole blood using Ficoll-Paque PLUS gradient solution (GE Healthcare, Sweden) according to the manufacturer’s instructions. The mononuclear cells thus obtained were washed twice in 6 ml PBS and either transferred to RPMI with 10% FBS and immediately used for experiments or stored frozen in liquid nitrogen. […] The stated concentrations correspond with cmax plasma levels of the respective drugs. […] The cells were then washed in ice-cold PBS and resuspended in 195 µL of 2% FBS in PBS. The anti-human CD34/PE antibody 4H11 (Invitrogen, Carlsbad, CA, USA) was added and incubated on ice for 30 min. This was followed by washing and resuspending in 1 × ABB and staining by annexin V/FITC conjugate as described above. After subsequent staining with PI, the samples were analyzed using the SONY SA3800 spectral cell analyzer.

The next data set deals with T4, AKR1A1 (Homo sapiens, UniProt P14550).
T4 construct: made in house; host or cells: Escherichia coli
T4 sequence (P14550 1-325): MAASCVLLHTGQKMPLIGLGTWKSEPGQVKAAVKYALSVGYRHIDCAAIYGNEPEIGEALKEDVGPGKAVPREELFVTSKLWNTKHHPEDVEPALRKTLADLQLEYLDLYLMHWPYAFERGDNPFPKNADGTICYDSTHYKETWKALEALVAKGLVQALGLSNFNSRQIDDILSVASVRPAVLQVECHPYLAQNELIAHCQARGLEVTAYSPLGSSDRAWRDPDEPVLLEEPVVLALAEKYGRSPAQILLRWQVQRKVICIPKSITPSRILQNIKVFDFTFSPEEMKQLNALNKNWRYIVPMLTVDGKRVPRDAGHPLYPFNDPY
Put plainly: Screening for inhibitory activity on recombinant CRE: AKR1A1. The class given is biochemical. As to conditions: 50 μM inhibitor concentration; mean ± SD, three experiments.
Source text: as §1

Data set [6] addresses T5, ABCG2 (Homo sapiens, UniProt Q9UNQ0).
T5 sequence (Q9UNQ0 1-655): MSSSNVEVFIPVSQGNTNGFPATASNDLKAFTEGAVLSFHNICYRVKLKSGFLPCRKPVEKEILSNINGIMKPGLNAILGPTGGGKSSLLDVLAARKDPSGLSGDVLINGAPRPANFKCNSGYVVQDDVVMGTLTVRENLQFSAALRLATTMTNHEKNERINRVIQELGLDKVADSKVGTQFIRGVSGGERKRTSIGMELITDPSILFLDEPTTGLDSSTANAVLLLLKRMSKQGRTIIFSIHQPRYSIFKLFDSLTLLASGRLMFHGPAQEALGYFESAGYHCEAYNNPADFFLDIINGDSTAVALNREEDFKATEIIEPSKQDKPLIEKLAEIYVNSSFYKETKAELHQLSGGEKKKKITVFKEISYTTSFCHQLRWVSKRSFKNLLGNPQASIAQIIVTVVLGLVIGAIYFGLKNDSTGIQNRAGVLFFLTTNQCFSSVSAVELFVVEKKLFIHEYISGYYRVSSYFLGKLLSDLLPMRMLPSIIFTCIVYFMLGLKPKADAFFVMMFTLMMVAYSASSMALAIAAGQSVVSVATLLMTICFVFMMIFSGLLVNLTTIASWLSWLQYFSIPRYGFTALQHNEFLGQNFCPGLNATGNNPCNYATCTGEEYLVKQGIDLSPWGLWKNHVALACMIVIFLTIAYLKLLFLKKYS
Conditions: 1 h.
Procedure: (§3) LY335979 (1 µM) and Ko143 (1 µM) were used as ABCB1 and ABCG2 model inhibitors. After 15 min, daunorubicin (HL-60 and HL-60 ABCB1) or mitoxantrone (HL-60 and HL-60 ABCG2) was added for 1 h at a final concentration of 1 µM (37 °C, 5% CO2). Subsequently, the samples were centrifuged at 150 × g for 5 min, washed in 500 µL ice-cold phosphate buffered saline (PBS), then resuspended again in 500 µL ice-cold PBS and promptly analyzed with a BD FACSCanto II flow cytometer (BD Biosciences, San Jose, CA, USA) using excitation/emission wavelengths 488/670 nm for daunorubicin and 633/660 nm for mitoxantrone.
(§4) The data were statistically analyzed in GraphPad Prism 8.0.1 (GraphPad Software, Inc., San Diego, CA, USA). One-way ANOVA with Dunnett’s post hoc test or Student’s t-test was used for results obtained in vitro, and the nonparametric Mann–Whitney test was used to analyze ex vivo experiments. Half-maximal inhibitory concentrations (IC50) were calculated using sigmoidal Hill kinetics while showing also the corresponding 95% confidence intervals. The correlation between expression and function of ABCB1 and ABCG2 was determined by linear regression. All differences were considered significant at p < 0.05.

In another data set the target is ABCB1 (Homo sapiens, UniProt P08183). Put plainly: Daunorubicin accumulation in HL-60 ABCB1 cells.
Sequence of ABCB1 (P08183 whole entry): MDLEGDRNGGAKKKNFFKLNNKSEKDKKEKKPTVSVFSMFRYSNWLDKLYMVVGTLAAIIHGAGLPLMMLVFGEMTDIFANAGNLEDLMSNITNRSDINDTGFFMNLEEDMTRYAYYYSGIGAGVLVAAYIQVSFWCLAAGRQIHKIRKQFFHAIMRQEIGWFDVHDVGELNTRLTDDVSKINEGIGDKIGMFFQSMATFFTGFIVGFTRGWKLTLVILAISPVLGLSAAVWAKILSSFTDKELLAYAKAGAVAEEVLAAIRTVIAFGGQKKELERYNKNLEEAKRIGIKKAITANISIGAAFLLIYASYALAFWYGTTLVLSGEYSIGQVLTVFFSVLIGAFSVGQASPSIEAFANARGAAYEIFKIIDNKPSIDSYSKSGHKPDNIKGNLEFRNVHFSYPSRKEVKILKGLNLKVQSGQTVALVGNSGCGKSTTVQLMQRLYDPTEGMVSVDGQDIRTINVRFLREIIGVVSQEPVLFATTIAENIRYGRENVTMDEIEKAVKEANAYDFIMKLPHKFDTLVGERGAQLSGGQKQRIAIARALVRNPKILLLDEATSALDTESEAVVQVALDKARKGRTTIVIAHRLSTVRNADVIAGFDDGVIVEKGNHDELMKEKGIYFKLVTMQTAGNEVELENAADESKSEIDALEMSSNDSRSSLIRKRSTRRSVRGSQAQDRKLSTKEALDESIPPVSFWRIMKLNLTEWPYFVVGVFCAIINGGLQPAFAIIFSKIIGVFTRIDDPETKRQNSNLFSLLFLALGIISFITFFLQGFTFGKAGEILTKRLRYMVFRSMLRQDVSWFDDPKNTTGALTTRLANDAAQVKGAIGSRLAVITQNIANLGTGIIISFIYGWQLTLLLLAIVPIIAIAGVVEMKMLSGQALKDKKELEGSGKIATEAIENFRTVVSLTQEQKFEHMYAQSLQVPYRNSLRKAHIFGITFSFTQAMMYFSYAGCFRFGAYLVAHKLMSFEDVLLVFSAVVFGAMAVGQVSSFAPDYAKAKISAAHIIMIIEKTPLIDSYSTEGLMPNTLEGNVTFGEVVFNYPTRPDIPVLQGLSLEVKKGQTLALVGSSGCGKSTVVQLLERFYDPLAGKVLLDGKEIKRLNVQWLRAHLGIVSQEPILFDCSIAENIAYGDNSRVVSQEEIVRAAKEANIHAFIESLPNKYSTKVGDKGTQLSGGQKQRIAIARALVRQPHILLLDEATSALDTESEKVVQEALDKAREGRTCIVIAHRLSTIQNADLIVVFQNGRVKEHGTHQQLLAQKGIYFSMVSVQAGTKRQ
The target in a further data set is T6, CBR1 (Homo sapiens, UniProt P16152).
T6 construct: made in house; host or cells: Escherichia coli
T6 sequence (P16152 1-277): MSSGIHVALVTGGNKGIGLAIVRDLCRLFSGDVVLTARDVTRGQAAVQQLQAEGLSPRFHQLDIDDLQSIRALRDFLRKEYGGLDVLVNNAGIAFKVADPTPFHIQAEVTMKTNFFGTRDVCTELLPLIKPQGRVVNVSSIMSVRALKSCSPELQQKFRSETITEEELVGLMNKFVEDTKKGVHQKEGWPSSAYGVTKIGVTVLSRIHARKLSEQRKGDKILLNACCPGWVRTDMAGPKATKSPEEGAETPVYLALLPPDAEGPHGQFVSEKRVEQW
Put plainly: Screening for inhibitory activity on recombinant CRE: CBR1. The class given is biochemical. Conditions: 50 μM inhibitor concentration; mean ± SD, three experiments.
Source text: as §1

The test system of another data set is HL-60 ABCB1 cells. Put plainly: Sub-G1 fraction of HL-60 ABCB1 cells. Conditions: 4 h. The class given is cell-based, human. Here is the method:
as §2

The target in data set [7] is T5, ABCG2. Put plainly: Mitoxantrone accumulation in HL-60 ABCG2 cells.
Procedure: as §3, §4
Data set [8] concerns HL-60 ABCG2 cells. Put plainly: Sub-G1 fraction of HL-60 ABCG2 cells. Conditions: mitoxantrone alone 1 µM, 4 h.
Procedure: Estimation of fractional DNA content in the late stage of apoptosis was additionally used to clarify the results of annexin V/PI staining. […] The fluorescent substrates daunorubicin (0.2 µM) or mitoxantrone (1 µM) were then added and the suspensions incubated for 4 h at 37 °C and 5% CO2. Afterwards, the cells were resuspended in 2% FBS in PBS and fixed with ice-cold 70% ethanol for at least 30 min at −20 °C. After fixation, the cells were diluted and washed twice with 2% FBS in PBS. Then, 50 µL of RNAse A (100 µg/mL) was applied to ensure that only DNA would be present. Next, 200 µL of PI (50 µg/mL) was added to stain the DNA content of the cells. The samples were incubated for 1 h at 37 °C and 5% CO2. Analysis was performed using a SONY SA3800 spectral cell analyzer. The percentage of cells displaying hypodiploid DNA content is presented as a sub-G1 region of a PI histogram.
Data set [9] relates to HL-60 ABCG2 cells. Put plainly: Annexin V/PI staining of HL-60 ABCG2 cells. Conditions: mitoxantrone alone 1 µM, 4 h.
Procedure: The cell suspension was preincubated for 15 min, and then, 1 µM mitoxantrone was added. Mitoxantrone, a dual substrate of ABCB1 and ABCG2, was chosen as resistance victim drug for the experiment because there are no fluorescence spillovers with propidium iodide (PI), which limit the usage of daunorubicin in this setup. The cells were incubated for 4 h at 37 °C and 5% CO2, washed and subsequently resuspended in 1 × annexin binding buffer (ABB, 195 µL) followed by addition of 5 µL of annexin V/fluorescein isothiocyanate (FITC) conjugate. The suspension was incubated in darkness for 10 min. Cells were then washed once in 1 × ABB and resuspended in 400 µL of ABB. Prior to the measurement, 10 µL of PI solution was added and cells were analyzed by BD FACSCanto II flow cytometer using excitation/emission wavelengths 488/530 nm and 488/670 for FITC and PI, respectively.
[10] abbreviates: CDKI (1, 10, 25 µM abemaciclib, palbociclib, ribociclib) + 0.2 µM daunorubicin.

Read-outs that look alike come from different tables or passages of the source.

What is called inhibition is the change of the read-out against control, counted positive when it falls. One may read the Cmax as the highest concentration seen after dosing. As a reminder, the IC50 is the concentration that inhibits the measured activity by half. A higher IC50 goes with weaker potency. As for `CCN1CCN(Cc2ccc(Nc3ncc(F)c(-c4cc(F)c5nc(C)n(C(C)C)c5c4)n3)nc2)CC1` [Abemaciclib, abemaciclib], the inhibition at 50 µM at AKR1B1 is 0%; at AKR1B10 it was 2.08 ± 0.4%; at AKR1C3 [2] it was 26.3 ± 1.3%; at AKR1A1 it was 0%; on CBR1, 0%. The “increase of median mitoxantrone accumulation” value (from here on “increase”) in the data set with PBMC of AML patients [1] (CD34+ PBMC) stood at 37.4%; in the data set with PBMC of AML patients [1] (FLT3-ITD− population), 16.4%. Besides, the “effect on median mitoxantrone accumulation” value in the data set with PBMC of AML patients [1] was “did not affect”. Besides, the Cmax in data set [3] (human, in vivo) was 500 nM. Also, the “proapoptotic effect (sub-G1) as a single drug” value (“proapoptotic effect (sub-G1)” for short) in the data set with HL-60 cells is “Neither abemaciclib, palbociclib, nor ribociclib caused a significant proapoptotic effect”. In addition, on AKR1C3 [4], the “changes in intracellular reduction of daunorubicin to daunorubicinol” value (shortened to “changes in intracellular reduction”) was “did not show any changes”. Also, the “changes in PBMC apoptosis after single drug exposure” value (“changes in PBMC apoptosis” below) with PBMC of AML patients [5] was “no significant changes”. Also, on ABCG2 [6], the “fold lower potency toward ABCG2 compared to ABCB1” value is recorded as 8.4 fold. Further, the IC50 against ABCB1 was found to be 0.354 µM; at ABCG2 [7], 2.98 µM. Besides, the sub-G1 fraction in the data set with HL-60 ABCB1 cells (setting [10]) was determined as 47.5%.
As to `CC(=O)c1c(C)c2cnc(Nc3ccc(N4CCNCC4)cn3)nc2n(C2CCCC2)c1=O` [Palbociclib, palbociclib], the inhibition at 50 µM amounted to 5.54 ± 3.4% at AKR1B1; 0% on AKR1B10; 23.5 ± 6.67% at AKR1C3 [2]; 0% on AKR1A1; 0% at CBR1. Also, the “increase” value in the data set on PBMC of AML patients [1] (CD34+ PBMC) stood at 33.4%; in the data set with PBMC of AML patients [1] (FLT3-ITD− population) it was 3.58%. The “effect on median mitoxantrone accumulation” value in the data set with PBMC of AML patients [1] is given as “did not affect”. Moreover, the Cmax in [3] (read-out: cmax plasma levels, standard dosing, concentration used in PBMC experiments) was 500 nM. The “proapoptotic effect (sub-G1)” value in the data set with HL-60 cells is on record as “Neither abemaciclib, palbociclib, nor ribociclib caused a significant proapoptotic effect”. Moreover, at AKR1C3 [4], the “changes in intracellular reduction” value is “did not show any changes”. The “changes in PBMC apoptosis” value with PBMC of AML patients [5] is “no significant changes”. At ABCG2 [6], the “ABCG2 IC50 fold higher than cmax” value was “approximately 100 fold”. Also, at ABCG2 [6], the “fold lower potency toward ABCG2 compared to ABCB1” value amounted to 6.8 fold. Also, the results for the IC50 on ABCB1 and against ABCG2 [7] were 6.65 µM and 45.5 µM, respectively. In addition, the sub-G1 fraction in the data set on HL-60 ABCB1 cells (setting [10]) was 30.7%.
In the case of `CN(C)C(=O)c1cc2cnc(Nc3ccc(N4CCNCC4)cn3)nc2n1C1CCCC1` [Ribociclib, ribociclib], the inhibition at 50 µM was 4.58 ± 2.41% at AKR1B1; 7.41 ± 1.08% at AKR1B10; 36.2 ± 2.83% on AKR1C3 [2]; 0% at AKR1A1; 0% at CBR1. The entries for the “increase” value in the data set on PBMC of AML patients [1] (CD34+ PBMC) and in the data set on PBMC of AML patients [1] (FLT3-ITD− population) were 60.5% and 28.6%, respectively. The “effect on median mitoxantrone accumulation” value in the data set on PBMC of AML patients [1] is recorded as “did not affect”. For the same compound, the Cmax in data set [3] (human, in vivo) is 7500 nM. In the data set on HL-60 cells, the “proapoptotic effect (sub-G1)” value is “Neither abemaciclib, palbociclib, nor ribociclib caused a significant proapoptotic effect”. For the same compound, the “changes in intracellular reduction” value on AKR1C3 [4] is “did not show any changes”. Besides, in the data set with PBMC of AML patients [5], the “changes in PBMC apoptosis” value is “no significant changes”. In the data set with HL-60 ABCB1 cells (setting [10]), the sub-G1 fraction was determined as 35.6%. The compound also yielded an IC50 against ABCG2 [7] of 26.9 µM.
In the data set with HL-60 ABCB1 cells (daunorubicin alone 0.2 µM), `COc1cccc2c1C(=O)c1c(O)c3c(c(O)c1C2=O)C[C@@](O)(C(C)=O)C[C@@H]3O[C@H]1C[C@H](N)[C@H](O)[C@H](C)O1` [daunorubicin] gave a sub-G1 fraction of 13.1%.
In the data set on HL-60 ABCG2 cells [8], `O=C1c2c(O)ccc(O)c2C(=O)c2c(NCCNCCO)ccc(NCCNCCO)c21` [mitoxantrone] yielded a sub-G1 fraction of 46.2%. Further, in the data set on HL-60 ABCG2 cells [9], the “annexin V+ population” value came to 25.2%.
